The term inhibition denotes the percentage by which the read-out fell short of the control.

Consider 17 molecules from patent US4127656A, “Method of inhibiting lipogensis with 3-(benzoyl)oxiranecarboxamides” (Shell Oil Company, priority 1978, dated 1978).

Experiment [1] has as its system lipogenesis (liver). The experiment is described as follows: inhibition of glucose incorporation into lipid in sheep liver tissue slices. It is filed as cell-based. The following applies: 100 micrograms per milliliter, 37° C., 2 hours. An excerpt:
(§1) The manner in which they cause this effect is not known with certainty; it is believed that they interfere with the synthesis of fatty acids in the tissues. Their effectiveness for this purpose has been ascertained by immersing samples of animal liver or adipose tissue in a liquid medium containing radioactive glucose and the test chemical, for a period of time, then isolating the lipid from the treated tissues and determining the up-take of the radioactive carbon by means of scintillation counting techniques. These tests were conducted in both liver and adipose tissue, because in some animals the primary site of lipogenesis appears to be liver tissue, while in others it appears to be adipose tissue. The test animals were pigs, chickens and sheep.
(§2) Described in more detail, the tests were conducted according to the following general procedure: […]
(§3) The incubation was terminated by addition of 0.25 milliliter of 1 N sulfuric acid. […] The extracts were washed according to Folch et al. (J. Biol. Chem., 226, 497-509, (1957)), air dried, and counted in a liquid scintillation counter with 15 milliliters of counting fluid (two parts toluene containing 0.4% w/v New England Nuclear Omnifluor:one part Triton X-100). […] From the date obtained were calculated the percent inhibition of lipid synthesis by the test compounds in each case. […]

Experiment [2] has as its system lipogenesis (swine adipose tissue). In words: inhibition of lipogenesis from glucose-U-14C in pig adipose tissue slices (percent inhibition of lipid synthesis). It is filed as cell-based, pig (swine). The following applies: Sus scrofa, 100 micrograms per milliliter, 37° C., 2 hours, triplicate, read-out: Percent Inhibition (of lipogenesis compared to control).
Text: as §1
Described in more detail, the tests were conducted according to the following general procedure:
Tissue slices (200 milligrams for liver and 150 milligrams for adipose tissue) were incubated at 37° C. for 2 hours with shaking in 3 milliliters of Krebs-Ringer bicarbonate solution containing one-half the normal calcium ion concentration, 60 micromoles of glucose, 0.5 microCurie of glucose-U^14 C., 300 microunits of insulin, and 5% dimethyl sulfoxide (DMSO). The test compounds were added as a suspension in DMSO and were present at a concentration of 100 micrograms per milliliter of the incubation mixture.
The incubation was terminated by addition of 0.25 milliliter of 1 N sulfuric acid. The resulting mixture was extracted with a total of 25 milliliters of chloroform:methanol (2:1, v/v). The extracts were washed according to Folch et al. (J. Biol. Chem., 226, 497-509, (1957)), air dried, and counted in a liquid scintillation counter with 15 milliliters of counting fluid (two parts toluene containing 0.4% w/v New England Nuclear Omnifluor:one part Triton X-100). The tests were conducted in triplicate and were accompanied by control tests in which all ingredients,proportions and conditions were the same except that no test compound was included. From the date obtained were calculated the percent inhibition of lipid synthesis by the test compounds in each case.
Compound 1 was tested with respect to all of the animals. The other compounds were tested only with respect to the pig.
From these and other tests, it has been established that in pigs there is little lipogenic activity in the liver tissue. From these and other tests, it also has been established that swine adipose tissue utilizes glucose for lipogenesis, and to be the major site of fatty acid synthesis. The data obtained from the tests using adipose tissue and glucose are set out in Table 1, as the percent inhibition of lipogenesis compared to the results obtained in the control tests wherein only the test compound was omitted.

The test system of experiment [3] is lipogenesis (adipose tissue). The experiment is described as follows: inhibition of glucose incorporation into lipid in sheep adipose tissue slices. It is filed as cell-based. The following applies: 100 micrograms per milliliter, 37° C., 2 hours.
Text: as §1, §2, §3

Experiment [4] deals with lipogenesis (liver). The experiment is described as follows: inhibition of glucose incorporation into lipid in chicken liver tissue slices. Conditions: 100 micrograms per milliliter, 37° C., 2 hours. It is filed as cell-based.
Text: as §1, §2, §3

For the molecule `NC(=O)[C@@H]1O[C@H]1C(=O)c1ccc(Cl)cc1` (relative stereo) [Compound 1, 3-(4-chlorobenzoyl)oxiranecarboxamide(trans)], in the experiment with lipogenesis (liver) [1], the “inhibition of glucose incorporation in the liver” value stood at 15%. Further, in experiment [2], the inhibition at 100 µg/mL was found to be 94%. In addition, in experiment [3], the “inhibition of glucose incorporation in adipose tissue” value is reported as 65%. Also, the “inhibition of glucose incorporation into the liver” value in the experiment with lipogenesis (liver) [4] is 54%. On to `CN(C)C(=O)[C@@H]1O[C@H]1C(=O)c1ccc(Cl)cc1` (relative stereo) [Compound 2, 3-(4-chlorobenzoyl)-N,N-dimethyloxiranecarboxamide(trans)], for which the inhibition at 100 µg/mL in experiment [2] was found to be 70%. On the same count and under the same terms, the same measure for `CNC(=O)[C@@H]1O[C@H]1C(=O)c1ccc(Cl)cc1` (relative stereo) [Compound 3, 3-(4-chlorobenzoyl)-N-methyloxiranecarboxamide(trans)]: 96%; for `NC(=O)[C@@H]1O[C@H]1C(=O)c1ccc(Cl)c(Cl)c1` (relative stereo) [Compound 4, 3-(3,4-dichlorobenzoyl)oxiranecarboxamide(trans)]: 96%; for `Cc1ccc(C(=O)[C@@H]2O[C@H]2C(N)=O)cc1` (relative stereo) [Compound 5, 3-(4-methylbenzoyl)oxiranecarboxamide(trans)]: 89%. On the same count and under the same terms, under `NC(=O)[C@@H]1O[C@H]1C(=O)c1ccccc1` (relative stereo) [Compound 6, 3-(benzoyl)oxiranecarboxamide(trans)] stands 91%; under `CC(C)NC(=O)[C@@H]1O[C@H]1C(=O)c1ccc(Cl)cc1` (relative stereo) [Compound 7, 3-(4-chlorobenzoyl)-N-(1-methylethyl)oxiranecarboxamide(trans)], 90%. Same read-out and setting: under `NC(=O)[C@@H]1O[C@H]1C(=O)c1cccc([N+](=O)[O-])c1` (relative stereo) [Compound 8, 3-(3-nitrobenzoyl)oxiranecarboxamide(trans)] stands 96%; under `C=CCNC(=O)[C@@H]1O[C@H]1C(=O)c1ccc(Cl)cc1` (relative stereo) [Compound 9, 3-(4-chlorobenzoyl)-N-(2-propenyl)oxiranecarboxamide(trans)], 94%. For `O=C(c1ccc(Cl)cc1)[C@@H]1O[C@H]1C(=O)N1CCOCC1` (relative stereo) [Compound 10, (4-chlorophenyl) (3-(4-morpholinylcarbonyl)oxiranyl)methanone(trans)], the inhibition at 100 µg/mL in experiment [2] was found to be 77%. Regarding `CC(=O)Nc1ccc(C(=O)[C@@H]2O[C@H]2C(N)=O)cc1` (relative stereo) [Compound 11, 3-(4-acetamidobenzoyl)oxiranecarboxamide(trans)], the inhibition at 100 µg/mL in experiment [2] is 23%. `COc1ccc(C(=O)[C@@H]2O[C@H]2C(N)=O)cc1` (relative stereo) [Compound 12, 3-(4-methoxybenzoyl)oxiranecarboxamide(trans)]: the inhibition at 100 µg/mL in experiment [2] was 64%. The same measure, in the same setting: the same measure for `C#CCNC(=O)[C@@H]1O[C@H]1C(=O)c1ccc(Cl)cc1` (relative stereo) [Compound 13, 3-(4-chlorobenzoyl)-N-(2-propynyl)oxiranecarboxamide(trans)]: 87%. For the molecule `NC(=O)[C@@H]1O[C@H]1C(=O)c1ccc(Br)cc1` (relative stereo) [Compound 14, 3-(4-bromobenzoyl)oxiranecarboxamide(trans)], the inhibition at 100 µg/mL in experiment [2] was 90%. On to `NC(=O)[C@@H]1O[C@H]1C(=O)c1ccc(F)cc1` (relative stereo) [Compound 15, 3-(4-fluorobenzoyl)oxiranecarboxamide(trans)], for which the inhibition at 100 µg/mL in experiment [2] came to 90%. Consider `NC(=O)[C@@H]1O[C@H]1C(=O)c1ccc(Cl)cc1Cl` (relative stereo) [Compound 16, 3-(2,4-dichlorobenzoyl)oxiranecarboxamide(trans)], for which, in experiment [2], the inhibition at 100 µg/mL was determined as 91%. For `NC(=O)[C@@H]1O[C@H]1C(=O)c1cccc(C(F)(F)F)c1` (relative stereo) [Compound 17, 3-(3-(trifluoromethyl)benzoyl)oxiranecarboxamide(trans)], the inhibition at 100 µg/mL in experiment [2] was found to be 94%.
